One data set can be described thus: solubility in methanol. It counts as physicochemical. The following applies: organic solvent or mixture, 25° C.
Data set [1] is described as follows: solubility in water (stepwise addition of water, visual inspection). It is filed as physicochemical. Conditions: 25 °C, thermodynamic from solid. Here is the method:
A clear water-soluble soybean-based extract (2 liters) obtained in the same manner as described in Example 1. The extract solution was then lyophilized using a lyophilizer manufactured by Bertis Corp for 2 days at −85° C. under 10 mm Torr, resulting in 350 g of a pale yellow dry cake. […] The solubility was tested by first adding 1 g of the dried extract into 1 ml of pure water at 25° C. with agitation for 5 min. If the extract was not completely dissolved (visual inspection), another 1 ml of water was added and the resulting mixture agitated for 5 minutes at 25° C. Next, the mixture was visually inspected to determine if the extract had completely dissolved. If not, water at 25° C. was added in 1 ml increments and agitated for 5 minutes after each addition of water until the extract was completely dissolved by visual inspection. .

In brackets after ≈: the same amount, converted by molar mass.

From patent US6541062B2, “Water-soluble soybean extracts” (priority 1999, dated 2003) come the findings set out here.

As a reminder, the solubility is the dissolved amount per volume that the medium holds.

Take `O=c1c(-c2ccc(O)cc2)coc2cc(O[C@@H]3O[C@H](CO)[C@@H](O)[C@H](O)[C@H]3O)cc(O)c12` [genistin]: the solubility in the data set “solubility in methanol” is around 5000 µg/mL (≈ 11.6 mM). Further, the solubility at 5 min in data set [1] was around 1000 µg/mL (≈ 2.31 mM).
